Numbers after ± are expanded uncertainties.
Assay: xn = mol fraction of the nth substance listed
Conditions: 101.3 kPa, Liquid

Clc1ccccc1 [chlorobenzene] + COC(=O)OC
Conditions	mass density [kg/m3]	viscosity [mPa·s]
293.15 K, x2 = 0	1106.74 ± 0.4	0.8084 ± 0.021
293.15 K, x2 = 0.1225	1102.19 ± 0.38	0.7794 ± 0.02
293.15 K, x2 = 0.238	1097.84 ± 0.36	0.7586 ± 0.019
293.15 K, x2 = 0.3499	1093.69 ± 0.34	0.7315 ± 0.019
293.15 K, x2 = 0.4545	1089.67 ± 0.32	0.7132 ± 0.018
293.15 K, x2 = 0.5559	1085.85 ± 0.3	0.698 ± 0.018
293.15 K, x2 = 0.6518	1082.22 ± 0.29	0.6805 ± 0.018
293.15 K, x2 = 0.7445	1078.84 ± 0.27	0.6567 ± 0.017
293.15 K, x2 = 0.8332	1075.58 ± 0.26	0.6449 ± 0.017
293.15 K, x2 = 0.9182	1072.42 ± 0.25	0.6244 ± 0.017
298.15 K, x2 = 0	1101.33 ± 0.4	0.7422 ± 0.019
298.15 K, x2 = 0.1225	1096.65 ± 0.37	0.7318 ± 0.019
298.15 K, x2 = 0.238	1092.16 ± 0.35	0.7193 ± 0.019
298.15 K, x2 = 0.3499	1087.88 ± 0.33	0.6956 ± 0.018
298.15 K, x2 = 0.4545	1083.72 ± 0.31	0.6864 ± 0.018
298.15 K, x2 = 0.5559	1079.81 ± 0.29	0.6627 ± 0.017
298.15 K, x2 = 0.6518	1076.05 ± 0.28	0.6427 ± 0.017
298.15 K, x2 = 0.7445	1072.55 ± 0.26	0.6226 ± 0.017
298.15 K, x2 = 0.8332	1069.17 ± 0.25	0.6017 ± 0.016
298.15 K, x2 = 0.9182	1065.93 ± 0.24	0.5856 ± 0.016
303.15 K, x2 = 0	1095.96 ± 0.39	0.7053 ± 0.018
303.15 K, x2 = 0.1225	1091.12 ± 0.36	0.6862 ± 0.018
303.15 K, x2 = 0.238	1086.51 ± 0.34	0.6624 ± 0.017
303.15 K, x2 = 0.3499	1082.09 ± 0.32	0.646 ± 0.017
303.15 K, x2 = 0.4545	1077.8 ± 0.3	0.6408 ± 0.017
303.15 K, x2 = 0.5559	1073.76 ± 0.28	0.6134 ± 0.016
303.15 K, x2 = 0.6518	1069.91 ± 0.27	0.6014 ± 0.016
303.15 K, x2 = 0.7445	1066.28 ± 0.26	0.5781 ± 0.016
303.15 K, x2 = 0.8332	1062.78 ± 0.24	0.5632 ± 0.015
303.15 K, x2 = 0.9182	1059.45 ± 0.23	0.5487 ± 0.015
313.15 K, x2 = 0	1085.06 ± 0.38	0.631 ± 0.017
313.15 K, x2 = 0.1225	1079.97 ± 0.35	0.6145 ± 0.016
313.15 K, x2 = 0.238	1075.08 ± 0.33	0.5875 ± 0.016
313.15 K, x2 = 0.3499	1070.36 ± 0.31	0.5709 ± 0.015
313.15 K, x2 = 0.4545	1065.81 ± 0.29	0.563 ± 0.015
313.15 K, x2 = 0.5559	1061.54 ± 0.27	0.5423 ± 0.015
313.15 K, x2 = 0.6518	1057.46 ± 0.25	0.5322 ± 0.015
313.15 K, x2 = 0.7445	1053.56 ± 0.24	0.5192 ± 0.014
313.15 K, x2 = 0.8332	1049.86 ± 0.23	0.4992 ± 0.014
313.15 K, x2 = 0.9182	1046.32 ± 0.22	0.4874 ± 0.014
323.15 K, x2 = 0	1074.26 ± 0.36	0.5677 ± 0.015
323.15 K, x2 = 0.1225	1068.8 ± 0.34	0.5546 ± 0.015
323.15 K, x2 = 0.238	1063.63 ± 0.31	0.5273 ± 0.015
323.15 K, x2 = 0.3499	1058.61 ± 0.29	0.5145 ± 0.014
323.15 K, x2 = 0.4545	1053.8 ± 0.27	0.5039 ± 0.014
323.15 K, x2 = 0.5559	1049.32 ± 0.26	0.4878 ± 0.014
323.15 K, x2 = 0.6518	1044.96 ± 0.24	0.4729 ± 0.014
323.15 K, x2 = 0.7445	1040.83 ± 0.23	0.4591 ± 0.013
323.15 K, x2 = 0.8332	1036.88 ± 0.21	0.4468 ± 0.013
323.15 K, x2 = 0.9182	1033.12 ± 0.2	0.4365 ± 0.013
333.15 K, x2 = 0	1063.32 ± 0.35	0.5069 ± 0.014
333.15 K, x2 = 0.1225	1057.53 ± 0.33	0.4954 ± 0.014
333.15 K, x2 = 0.238	1052.07 ± 0.3	0.4791 ± 0.014
333.15 K, x2 = 0.3499	1046.76 ± 0.28	0.4619 ± 0.013
333.15 K, x2 = 0.4545	1041.66 ± 0.26	0.452 ± 0.013
333.15 K, x2 = 0.5559	1036.93 ± 0.24	0.4401 ± 0.013
333.15 K, x2 = 0.6518	1032.33 ± 0.23	0.4277 ± 0.013
333.15 K, x2 = 0.7445	1027.92 ± 0.21	0.415 ± 0.013
333.15 K, x2 = 0.8332	1023.72 ± 0.2	0.4046 ± 0.012
333.15 K, x2 = 0.9182	1019.74 ± 0.19	0.3949 ± 0.012
343.15 K, x2 = 0	1052.44 ± 0.34	0.4658 ± 0.013
343.15 K, x2 = 0.1225	1046.33 ± 0.31	0.455 ± 0.013
343.15 K, x2 = 0.238	1040.54 ± 0.29	0.4326 ± 0.013
343.15 K, x2 = 0.3499	1034.93 ± 0.27	0.4242 ± 0.013
343.15 K, x2 = 0.4545	1029.51 ± 0.25	0.4142 ± 0.013
343.15 K, x2 = 0.5559	1024.52 ± 0.23	0.3978 ± 0.012
343.15 K, x2 = 0.6518	1019.67 ± 0.21	0.3879 ± 0.012
343.15 K, x2 = 0.7445	1014.99 ± 0.2	0.377 ± 0.012
343.15 K, x2 = 0.8332	1010.53 ± 0.19	0.3678 ± 0.012
343.15 K, x2 = 0.9182	1006.31 ± 0.17	0.3609 ± 0.012

Source: the NIST ThermoML archive (doi:10.1021/je049777o)
